IC50 data for 22 compounds are collected here from patent US12264134B2 (Merck Sharp & Dohme LLC, priority 2018, dated 2025).

pIC50: −log10 of the molar value.

The target in the assay is IDO1 (Homo sapiens, UniProt P14902). Nature of the assay: IDO1 Cellular Assay in HeLa Cells Stimulated with IFNγ. The conditions noted are these: read-out: HeLa Cell Potency, IC50. It is filed as cell-based.
Sequence of IDO1 (P14902 whole entry): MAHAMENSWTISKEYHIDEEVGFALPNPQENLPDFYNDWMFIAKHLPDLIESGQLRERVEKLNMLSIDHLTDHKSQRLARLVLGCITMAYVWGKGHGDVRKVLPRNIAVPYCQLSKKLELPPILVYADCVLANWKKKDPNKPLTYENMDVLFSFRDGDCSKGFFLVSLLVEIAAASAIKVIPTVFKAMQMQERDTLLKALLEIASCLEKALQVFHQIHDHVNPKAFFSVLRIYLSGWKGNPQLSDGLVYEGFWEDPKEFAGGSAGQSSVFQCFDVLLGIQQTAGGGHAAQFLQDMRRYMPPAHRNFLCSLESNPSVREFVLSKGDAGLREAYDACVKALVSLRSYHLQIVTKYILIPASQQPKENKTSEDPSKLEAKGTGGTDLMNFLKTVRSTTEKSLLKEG
In the case of `Cc1cccc(N2CCN(C(=O)Cn3nc(C(=O)N4C[C@@H](O)[C@@H](O)C4)c4c3CCC4)CC2)c1C` [Example 308, 2-{3-[(3R,4S)-3,4-dihydroxypyrrolidine-1-carbonyl]-5,6-dihydrocyclopenta[c]pyrazol-1(4H)-yl}-1-[4-(2,3-dimethylphenyl)piperazin-1-yl]ethan-1-one], the pIC50 is 6.40.

Consider `Cc1cccc(N2CCN(C(=O)Cn3nc(C(=O)N4C[C@H](O)[C@@H](O)C4)c4c3CCC4)CC2)c1C` [Example 309, 2-{3-[(3S,4S)-3,4-dihydroxypyrrolidine-1-carbonyl]-5,6-dihydrocyclopenta[c]pyrazol-1(4H)-yl}-1-[4-(2,3-dimethylphenyl)piperazin-1-yl]ethan-1-one], for which the pIC50 is 6.39.

`Cc1cccc(N2CCN(C(=O)Cn3nc(C(=O)N4C[C@@H](C)O[C@@H](C)C4)c4c3CC3CC43)CC2)c1C` (stereo partly drawn) [Example 310, 2-{3-[(2R,6S)-2,6-dimethylmorpholine-4-carbonyl]-3b-4,4a,5-tetrahydro-1H-cyclopropa[3,4]cyclopenta[1,2-c]pyrazol-1-yl}-1-[4-(2,3-dimethylphenyl)piperazin-1-yl]ethan-1-one]: the pIC50 was 8.73.

Turning to `Cc1cccc(N2CCN(C(=O)Cn3nc(C(=O)N4C[C@@H](C)O[C@@H](C)C4)c4c3C3CC3C4)CC2)c1C` (stereo partly drawn) [Example 311, 2-{3-[(2R,6S)-2,6-dimethylmorpholine-4-carbonyl]-4,4a,5,5a-tetrahydro-1H-cyclopropa[4,5]cyclopenta[1,2-c]pyrazol-1-yl}-1-[4-(2,3-dimethylphenyl)piperazin-1-yl]ethan-1-one], the pIC50 was 8.36.

Turning to `Cc1c(Cl)cccc1N1CCN(C(=O)Cn2nc(C(=O)N3CCC(OCCO)CC3)c3c2C[C@H]2C[C@@H]32)C2(CC2)C1` [Example 312, 1-(7-(3-chloro-2-methylphenyl)-4,7-diazaspiro[2.5]octan-4-yl)-2-((3bR,4aR)-3-(4-(2-hydroxyethoxy)piperidine-1-carbonyl)-3b,4,4a,5-tetrahydro-1H-cyclopropa[3,4]cyclopenta[1,2-c]pyrazol-1-yl)ethan-1-one], the negative-log IC50 (pIC50) was 8.76.

With `Cc1c(Cl)cccc1N1CCN(C(=O)Cn2nc(C(=O)N3CCC(NCCO)CC3)c3c2C[C@H]2C[C@@H]32)C2(CC2)C1` [Example 313, 1-[7-(3-chloro-2-methylphenyl)-4,7-diazaspiro[2.5]octan-4-yl]-2-[(3bR,4aR)-3-{4-[(2-hydroxyethyl)amino]piperidine-1-carbonyl}-3b,4,4a,5-tetrahydro-1H-cyclopropa[3,4]cyclopenta[1,2-c]pyrazol-1-yl]ethan-1-one], the pIC50 is 7.17.

As for `Cc1c(Cl)cccc1N1CCN(C(=O)Cn2nc(C(=O)N3CCN(CCO)CC3)c3c2C[C@H]2C[C@@H]32)C2(CC2)C1` [Example 316, 1-[7-(3-chloro-2-methylphenyl)-4,7-diazaspiro[2.5]octan-4-yl]-2-{(3bR,4aR)-3-[4-(2-hydroxyethyl)piperazine-1-carbonyl]-3b,4,4a,5-tetrahydro-1H-cyclopropa[3,4]cyclopenta[1,2-c]pyrazol-1-yl}ethan-1-one], the pIC50 is 8.65.

`Cc1c(F)ccc(N2CCN(C(=O)Cn3nc(C(=O)N4CC[C@@H](O)[C@H](F)C4)c4c3C[C@H]3C[C@@H]43)C3(CC3)C2)c1C` [Example 318, 1-[7-(4-fluoro-2,3-dimethylphenyl)-4,7-diazaspiro[2.5]octan-4-yl]-2-{(3bR,4aR)-3-[(3R,4R)-3-fluoro-4-hydroxypiperidine-1-carbonyl]-3b,4,4a,5-tetrahydro-1H-cyclopropa[3,4]cyclopenta[1,2-c]pyrazol-1-yl}ethan-1-one]: the pIC50 was 8.85.

Consider `Cc1c(N2CCN(C(=O)Cn3nc(C(=O)N4CCC(O)(CF)CC4)c4c3C[C@H]3C[C@@H]43)CC2)cccc1C(F)(F)F` [Example 336, 2-((3bR,4aR)-3-(4-(fluoromethyl)-4-hydroxypiperidine-1-carbonyl)-3b,4,4a,5-tetrahydro-1H-cyclopropa[3,4]cyclopenta[1,2-c]pyrazol-1-yl)-1-(4-(2-methyl-3-(trifluoromethyl)phenyl)piperazin-1-yl)ethanone], for which the pIC50 was 9.11.

As to `Cc1c(N2CCN(C(=O)Cn3nc(C(=O)N4CCN(C(=O)CO)CC4)c4c3C[C@H]3C[C@@H]43)CC2)cccc1C(F)(F)F` [Example 337, 2-hydroxy-1-(4-((3bR,4aR)-1-(2-(4-(2-methyl-3-(trifluoromethyl)phenyl)piperazin-1-yl)-2-oxoethyl)-3b,4,4a,5-tetrahydro-1H-cyclopropa [3,4]cyclopenta[1,2-c]pyrazole-3-carbonyl)piperazin-1-yl)ethanone], the pIC50 is 8.55.

For `CC(=O)NC1CCN(C(=O)c2nn(CC(=O)N3CCN(c4cccc(C(F)(F)F)c4C)CC3)c3c2[C@@H]2C[C@@H]2C3)CC1` [Example 340, N-(1-((3bR,4aR)-1-(2-(4-(2-methyl-3-(trifluoromethyl)phenyl)piperazin-1-yl)-2-oxoethyl)-3b,4,4a,5-tetrahydro-1H-cyclopropa[3,4]cyclopenta[1,2-c]pyrazole-3-carbonyl)piperidin-4-yl)acetamide], the pIC50 is 8.61.

`Cc1c(N2CCN(C(=O)Cn3nc(C(=O)N4CCC(OCCO)CC4)c4c3C[C@H]3C[C@@H]43)CC2)cccc1C(F)(F)F` [Example 341, 2-((3bR,4aR)-3-(4-(2-hydroxyethoxy)piperidine-1-carbonyl)-3b,4,4a,5-tetrahydro-1H-cyclopropa[3,4]cyclopenta[1,2-c]pyrazol-1-yl)-1-(4-(2-methyl-3-(trifluoromethyl)phenyl)piperazin-1-yl)ethanone]: the pIC50 is 8.79.

Turning to `Cc1c(N2CCN(C(=O)Cn3nc(C(=O)N4CCO[C@H](CO)C4)c4c3C[C@H]3C[C@@H]43)CC2)cccc1C(F)(F)F` [Example 342, 2-((3bR,4aR)-3-((S)-2-(hydroxymethyl)morpholine-4-carbonyl)-3b,4,4a,5-tetrahydro-1H-cyclopropa[3,4]cyclopenta[1,2-c]pyrazol-1-yl)-1-(4-(2-methyl-3-(trifluoromethyl)phenyl)piperazin-1-yl)ethanone], the pIC50 was 8.67.

For `Cc1c(N2CCN(C(=O)Cn3nc(C(=O)N4CCO[C@@H](CO)C4)c4c3C[C@H]3C[C@@H]43)CC2)cccc1C(F)(F)F` [Example 343, 2-((3bR,4aR)-3-((R)-2-(hydroxymethyl)morpholine-4-carbonyl)-3b,4,4a,5-tetrahydro-1H-cyclopropa [3,4]cyclopenta[1,2-c]pyrazol-1-yl)-1-(4-(2-methyl-3-(trifluoromethyl)phenyl)piperazin-1-yl)ethanone], the pIC50 is 8.72.

In the case of `Cc1c(C(F)F)cccc1N1CCN(C(=O)Cn2nc(C(=O)N3CCN(C(=O)CO)CC3)c3c2C[C@H]2C[C@@H]32)CC1` [Example 344, 1-(4-(3-(difluoromethyl)-2-methylphenyl)piperazin-1-yl)-2-((3bR,4aR)-3-(4-(2-hydroxyacetyl)piperazine-1-carbonyl)-3b,4,4a,5-tetrahydro-1H-cyclopropa[3,4]cyclopenta[1,2-c]pyrazol-1-yl)ethanone], the pIC50 is 8.19.

Take `Cc1c(C(F)F)cccc1N1CCN(C(=O)Cn2nc(C(=O)N3CCC(OCCO)CC3)c3c2C[C@H]2C[C@@H]32)CC1` [Example 345, 1-(4-(3-(difluoromethyl)-2-methylphenyl)piperazin-1-yl)-2-((3bR,4aR)-3-(4-(2-hydroxyethoxy)piperidine-1-carbonyl)-3b,4,4a,5-tetrahydro-1H-cyclopropa[3,4]cyclopenta[1,2-c]pyrazol-1-yl)ethanone]: the pIC50 was 8.73.

Turning to `Cc1c(C(F)F)cccc1N1CCN(C(=O)Cn2nc(C(=O)N3CCC(O)CC3)c3c2C[C@H]2C[C@@H]32)CC1` [Example 346, 1-(4-(3-(difluoromethyl)-2-methylphenyl)piperazin-1-yl)-2-((3bR,4aR)-3-(4-hydroxypiperidine-1-carbonyl)-3b,4,4a,5-tetahydro-1H-cyclopropa[3,4]cyclopenta[1,2-c]pyrazol-1-yl)ethanone], the negative logarithm of the IC50 (pIC50) was 9.07.

With `Cc1c(C(F)F)cccc1N1CCN(C(=O)Cn2nc(C(=O)N3CC[C@@H](O)[C@@H](F)C3)c3c2C[C@H]2C[C@@H]32)CC1` [Example 347, 1-(4-(3-(difluoromethyl)-2-methylphenyl)piperazin-1-yl)-2-((3bR,4aR)-3-((3S,4R)-3-fluoro-4-hydroxypiperidine-1-carbonyl)-3b,4,4a,5-tetrahydro-1H-cyclopropa[3,4]cyclopenta[1,2-c]pyrazol-1-yl)ethanone], the pIC50 is 8.56.

Turning to `Cc1c(C(F)F)cccc1N1CCN(C(=O)Cn2nc(C(=O)N3CC[C@H](O)[C@H](F)C3)c3c2C[C@H]2C[C@@H]32)CC1` [Example 348, 1-(4-(3-(difluoromethyl)-2-methylphenyl)piperazin-1-yl)-2-((3bR,4aR)-3-((3R,4S)-3-fluoro-4-hydroxypiperidine-1-carbonyl)-3b,4,4a,5-tetrahydro-1H-cyclopropa[3,4]cyclopenta[1,2-c]pyrazol-1-yl)ethanone], the negative-log IC50 (pIC50) is 8.86.

On to `Cc1c(C(F)F)cccc1N1CCN(C(=O)Cn2nc(C(=O)N3CCO[C@H](CO)C3)c3c2C[C@H]2C[C@@H]32)CC1` [Example 349, 1-(4-(3-(difluoromethyl)-2-methylphenyl)piperazin-1-yl)-2-((3bR,4aR)-3-((S)-2-(hydroxymethyl)morpholine-4-carbonyl)-3b,4,4a,5-tetrahydro-1H-cyclopropa[3,4]cyclopenta[1,2-c]pyrazol-1-yl)ethanone], for which the pIC50 is 8.35.

For `Cc1c(C(F)F)cccc1N1CCN(C(=O)Cn2nc(C(=O)N3CCO[C@@H](CO)C3)c3c2C[C@H]2C[C@@H]32)CC1` [Example 350, 1-(4-(3-(difluoromethyl)-2-methylphenyl)piperazin-1-yl)-2-((3bR,4aR)-3-((R)-2-(hydroxymethyl)morpholine-4-carbonyl)-3b,4,4a,5-tetrahydro-1H-cyclopropa[3,4]cyclopenta[1,2-c]pyrazol-1-yl)ethanone], the pIC50 was 8.25.

Take `Cc1c(Cl)cccc1N1CCN(C(=O)Cn2nc(C(=O)N3CCC(O)C(C)C3)c3c2C[C@H]2C[C@@H]32)CC1` (stereo partly drawn) [Example 354, 1-(4-(3-chloro-2-methylphenyl)piperazin-1-yl)-2-((3bR,4aR)-3-(4-hydroxy-3-methylpiperidine-1-carbonyl)-3b,4,4a,5-tetrahydro-1H-cyclopropa[3,4]cyclopenta[1,2-c]pyrazol-1-yl)ethanone]: the pIC50 is 8.62.

The term pIC50 denotes −log10 of the IC50, conventionally taken in molar units.
